# Data as given in patent US20030157176A1, “Antimicrobially treated material and methods of preventing coloring thereof” (priority 2001, published 2003).
# Assay: Silver ion concentration ranges in the water system
# Details: dissociated in water system
# Description: A basic idea of the present invention for preventing coloring of silver zeolite is to make an purposeful use of the concentration rages of silver ions dissociated from silver zeolite in water system, i.e., a concentration range A which is effective for antimicrobial action and a concentration range B which is responsible for coloring.
# Namely, the concentration range A which is effective for antimicrobial action is more than 1 ppm that is the antimicrobially effective concentration of silver ions while the concentration range B which is responsible for coloring is 40 ppm or more, so that a concentration range C for silver ions dissociated in the water system, which is effective for antimicrobial action without causing coloring, exists between 1 ppm and 40 ppm (preferably between 5 ppm and 30 ppm).
# The concentration range of silver ions dissociated from 1000 ppm silver zeolite in the water system varies from 40 ppm to 600 ppm. This variation is probably due to a decrease in the silver ion concentration caused by generation of silver oxide or adsorption of silver ions in the water system, or is under the influence of the degree of dissociation of silver ions by metal salts, surfactants, and temperature. […]
substance,measurement,value
silver ions,antimicrobially effective concentration of silver ions (range A),more than 1 ppm
same,silver ion concentration responsible for coloring (range B),≥ 40 ppm
